Assay results published in patent publication US20240018472A1, “ENHANCEMENT OF EXTRACELLULAR VESICLE PRODUCTION BY LYSOSOME INHIBITOR” (ExoTop Theragnostics Inc., priority 2022, published 2024).
“Also recorded” adds a separate entry of the source.

Key:
human MSCs = assay: Intracellular acidification of MSCs, lysotracker red staining of acidic organelles; type: cell-based; settings: MSCs cultured in CDPF with lysosome inhibitor vs CCM and CDPF
Protocol: The plate was incubated again.
Human MSCs were cultured in different media including complete culture medium (CCM), CDPF, and CDPF with lysosome inhibitor. The acidic organelles in live stem cells were stained by lysotracker red.

CD63 [1] = assay: CD63 ELISA of culture media, secretion of EVs (CD63+ particles) from stem cells; type: cell-based, human
Protocol: (§6) Mesenchymal stem cells were seeded on the plate at a density of ˜5000 cells/cm^2 and the plate was placed in a 5% CO2 humidified incubator. One day after the incubation, the culture media was aspirated to remove non-adherent cells and switched to a fresh media. The plate was incubated again. After further culturing for around 3 to 5 days, the culture media was aspirated and replaced by CDPF and/or lysosome inhibitor medium. The cells were cultured in the CDPF and/or lysosome inhibitor medium for 12, 24, or 48 hours. After the designated period of culturing, the culture media was collected and cell lysis buffer was immediately added to the cells on the plate. The collected media and cell lysate were each independently subjected to detection of the level of CD63 by ELISA and by qPCR, respectively.
(§7) To quantitatively compare CD63+ expression in CM cultured in various media including CCM, CDPF, and CDPF with lysosome inhibitor, enzyme-linked immunosorbent (ELISA) assays were performed.

[2] = system: fatty acid synthase (FASN); assay: qPCR RQ for fatty acid synthase (FASN) in MSCs in CCM or CDPF with or without lysosome inhibitor; type: cell-based
Protocol: as §6, §7

CD63 [3] = assay: CD63 ELISA of cell-cultured media, MSC with or without CQ in three media; type: cell-based; settings: for CD63 levels (ELISA) vs corresponding medium without CQ: CQ 50 μM, 48 hours
Protocol: (§1) Mesenchymal stem cells (MSC) were cultured in complete media until reaching 70% overall cell confluence, and then were further cultured in three different media with or without chloroquine (CQ) at 50 μM for 48 hours: complete media (normal culture media containing serum), αMEM (minimum essential media), and CDPF (chemically defined protein-free media). The cell-cultured media were collected, filtered through a 0.2 μm filter, and assessed by CD63 ELISA to quantify the amount of CD63, a protein marker associated with small-sized EVs (FIG. 5A).
(§2) One-way ANOVA statistics were performed to analyze the data. In some cases, CD63 is a marker associated with small-sized EVs. In some cases, CD81 is a marker associated with EVs generally. P-value of greater than 0.05 was considered as not having a significant difference. *** indicates p≤0.001.

CD63 [4] = assay: qPCR of CD63 gene expression in MSCs with or without CQ; type: cell-based; settings: CQ 50 μM, 48 hours; for gene expression of CD63 (in words): listed as CQ
Protocol: as §1
(§3) To further examine whether the upregulation of CD63 protein is a result of cytosolic secretion or heightened expression at the gene level, an analysis of alterations in the gene expression levels of extracellular vesicle-specific components in both complete and serum-free media was performed. The cultured cells were collected to perform qPCR analysis to detect three well-established EV markers: CD09, CD63, and CD81 (FIGS. 5B, 5C, and 5D).
as §2

CD81 = assay: qPCR of CD81 gene expression in MSCs with or without CQ; type: cell-based; settings: all media conditions (complete, αMEM, CDPF); CQ 50 μM, 48 hours; listed as CQ
Protocol: as §1, §3, §2

CD09 = assay: qPCR of CD09 gene expression in MSCs with or without CQ; type: cell-based; settings: all media conditions; CQ 50 μM, 48 hours
Protocol: as §1, §3, §2

[5] = system: Mesenchymal stem cells (MSCs); assay: Cellular morphology of MSCs after 48-hour culture with or without CQ; type: cell-based; settings: CQ in serum-free media compared to complete media
Protocol: (§4) Mesenchymal stem cells (MSCs) were subjected to 48-hour culture in either complete media or serum-free media, followed by treatment with or without CQ to investigate alterations in cellular morphology. In addition, the gene expression levels of FASN (fatty acid synthase, a pivotal lipogenic enzyme) and SREBF-1(sterol regulatory element-binding transcription factor-1), two key factors involved in lipid metabolism, were assessed by qPCR.

[6] = system: FASN (fatty acid synthase); assay: qPCR of FASN gene expression in MSCs with or without CQ; type: cell-based; settings: both serum-free media and complete media, 48-hour culture
Protocol: as §4

[7] = system: SREBF-1 (sterol regulatory element-binding transcription factor-1); assay: qPCR of SREBF-1 gene expression in MSCs with or without CQ; type: cell-based; settings: both serum-free media and complete media, 48-hour culture
Protocol: as §4

[8] = system: TSG-6 (tumor necrosis factor-inducible gene 6 protein); assay: Protein expression of TSG-6, MSC with or without CQ; type: cell-based; settings: regardless of the culture condition; CQ 50 μM, 48 hours
Protocol: (§5) Mesenchymal stem cells (MSC) were cultured in complete media until reaching 70% overall cell confluence, and then were further cultured in three different media with or without chloroquine (CQ) at 50 μM for 48 hours: complete media (normal culture media containing serum), αMEM (minimum essential media), and CDPF (chemically defined protein-free media). The cultured cells were analyzed for protein expression of TSG-6 (tumor necrosis factor-inducible gene 6 protein), Gal-3 (β-galactoside-binding lectin-3), and IDO and microRNA expression of miR-21 and miR-222. One-way ANOVA statistics were performed to analyze the data. P-value of greater than 0.05 was considered as not having a significant difference. *** indicates p≤0.001.

[9] = system: Gal-3 (β-galactoside-binding lectin-3); assay: Protein expression of Gal-3, MSC with or without CQ; type: cell-based; settings: both αMEM media and CDPF media; CQ 50 μM, 48 hours
Protocol: as §5

IDO = assay: Protein expression of IDO, MSC with or without CQ; type: cell-based; settings: both αMEM media and CDPF media; CQ 50 μM, 48 hours
Protocol: as §5

miR-21 = assay: microRNA expression of miR-21, MSC with or without CQ; type: cell-based; settings: CQ 50 μM, 48 hours
Protocol: as §5

miR-222 = assay: microRNA expression of miR-222 (miR-22 in the source), MSC with or without CQ; type: cell-based; settings: CQ 50 μM, 48 hours
Protocol: as §5

[10] = CDPF with lysosome inhibitor vs CDPF, RT-qPCR
[11] = complete media culture condition

Protocol for human CD63 (hCD63) gene: Mesenchymal stem cells were seeded on the plate at a density of 5000 cells/cm^2 and the plate was placed in a 5% CO2 humidified incubator. One day after the incubation, the culture media was aspirated to remove non-adherent cells and switched to a fresh media. The plate was incubated again. After further culturing for around 3 to 5 days, the culture media was aspirated and replaced by CDPF and/or lysosome inhibitor medium. The cells were cultured in the CDPF and/or lysosome inhibitor medium for 12, 24, or 48 hours. After the designated period of culturing, the culture media was collected and cell lysis buffer was immediately added to the cells on the plate. The collected media and cell lysate were each independently subjected to detection of the level of CD63 by ELISA and by qPCR, respectively.
To compare hCD63+ expression in MSCs cultured in various media including CCM, CDPF, and CDPF with lysosome inhibitor, RT-quantitative real-time PCR (RT-qPCR) assays were performed.

CCN(CC)CCCC(C)Nc1ccnc2cc(Cl)ccc12 (centres unmarked) [chloroquine]
intracellular acidification of human MSCs (human MSCs): suppresses | secretion of EVs (CD63+ particles) from stem cells to cultured medium (in words) (CD63 [1]; CDPF with lysosome inhibitor vs CCM and CDPF): stimulated | EV productions (CD63 ELISA), fold vs CCM or CDPF without lysosome inhibitor (CD63 [1]; CDPF with lysosome inhibitor vs CCM or CDPF): about 2.3 times | expression of FASN, fold vs CCM ([2]; CCM with lysosome inhibitor vs CCM, RT-qPCR): about 25 times | expression of FASN, fold vs CDPF without lysosome inhibitor [2, 10]: about 5 times | gene expression of FASN (in words) ([2]; treatment with lysosome inhibitor, qPCR RQ): drastically induced | CD63 levels (ELISA) vs corresponding medium without CQ (CD63 [3]; CDPF+CQ): higher | CD63 levels (ELISA) vs corresponding medium without CQ (CD63 [3]; complete medium+CQ): higher | increase in EVs (CD63+) quantity resulting from CQ treatment, serum-free vs complete media (CD63 [3]; serum-free media (αMEM and CDPF) compared to complete media): larger | CD63 levels (ELISA) vs corresponding medium without CQ (CD63 [3]; αMEM+CQ): higher | gene expression of CD63, fold vs corresponding medium without CQ (CD63 [4]; CDPF+CQ vs CDPF): more than 2.5 times | gene expression of CD63 (in words) (CD63 [4]; complete media): no notable changes; also recorded: not seen | gene expression of CD63 (in words) (CD63 [4]; serum-free media (αMEM, CDPF), p≤0.001): significant upregulation; also recorded: large increase | gene expression of CD63, fold vs corresponding medium without CQ (CD63 [4]; αMEM+CQ vs αMEM): more than 2.5 times | CD81 gene expression (in words) (CD81): did not increase significantly; also recorded: remained similar | CD09 expression (in words) (CD09): elevated | cellular morphology [5]: notable thinning of spindle-shaped cells and the emergence of numerous lipid body-like structures | gene expression of FASN (in words) [6]: robust upregulation | gene expression of SREBF-1 (in words) [7]: robust upregulation | TSG-6 content levels (in words) [8]: did not stimulate an increase | expression level of Gal-3 (in words) [9]: increased | expression level of IDO (in words) (IDO): increased | expression of miR-21 (in words) (miR-21; [11]): did not induce an increase | expression of miR-21 (in words) (miR-21; serum-free conditions): increased | expression of miR-22 (in words) (miR-222; [11]): did not induce an increase | expression of miR-22 (in words) (miR-222; serum-free conditions): increased | expression of hCD63+ gene, fold vs MSCs cultured in CCM (human CD63 (hCD63) gene; CDPF with lysosome inhibitor vs CCM, RT-qPCR): about 10 times | expression of hCD63+ gene, fold vs MSCs cultured in CDPF without lysosome inhibitor (human CD63 (hCD63) gene; [10]): about 5 times | CD63 gene expression in MSCs (in words) (human CD63 (hCD63) gene; CDPF with lysosome inhibitor, qPCR): dramatic increase; also recorded: increased
